Residue numbers refer to the chain shown, from its start. Where two headings read alike, the source gives them in different places.
Key:
[1] = molecular target: T1, hAR (human androgen receptor) (Homo sapiens, UniProt P10275); assay: Competitive binding analysis on hAR extracts with 3H-DHT tracer
T1 construct: made in house; host or cells: baculovirus/Sf9 insect cells
T1 sequence (P10275 1-920): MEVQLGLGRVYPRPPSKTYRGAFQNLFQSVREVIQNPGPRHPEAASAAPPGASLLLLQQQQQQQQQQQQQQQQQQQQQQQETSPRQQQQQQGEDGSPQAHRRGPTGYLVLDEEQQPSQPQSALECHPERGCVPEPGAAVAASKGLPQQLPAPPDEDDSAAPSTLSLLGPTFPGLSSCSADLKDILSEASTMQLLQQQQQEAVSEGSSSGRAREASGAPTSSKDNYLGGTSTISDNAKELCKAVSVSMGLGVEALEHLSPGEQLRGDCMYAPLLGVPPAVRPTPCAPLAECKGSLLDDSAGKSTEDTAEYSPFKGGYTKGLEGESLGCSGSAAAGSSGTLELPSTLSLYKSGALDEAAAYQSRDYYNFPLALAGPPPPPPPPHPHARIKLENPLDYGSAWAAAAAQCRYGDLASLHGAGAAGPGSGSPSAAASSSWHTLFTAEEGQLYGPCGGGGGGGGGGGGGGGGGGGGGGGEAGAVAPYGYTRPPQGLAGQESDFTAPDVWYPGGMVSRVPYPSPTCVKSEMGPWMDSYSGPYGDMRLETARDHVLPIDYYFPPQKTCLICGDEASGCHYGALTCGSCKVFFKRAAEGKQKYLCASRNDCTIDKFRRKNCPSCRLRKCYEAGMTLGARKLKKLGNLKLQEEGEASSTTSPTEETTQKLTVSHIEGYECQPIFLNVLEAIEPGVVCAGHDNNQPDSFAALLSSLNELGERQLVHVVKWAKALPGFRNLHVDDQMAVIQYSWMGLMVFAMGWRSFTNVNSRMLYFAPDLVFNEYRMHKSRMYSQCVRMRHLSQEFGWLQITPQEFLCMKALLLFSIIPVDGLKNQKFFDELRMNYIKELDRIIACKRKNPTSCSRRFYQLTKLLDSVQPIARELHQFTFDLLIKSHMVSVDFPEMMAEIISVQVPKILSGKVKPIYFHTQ
Procedure: The description below describes how the assay was carried out.
Competitive binding analysis was performed on baculovirus/Sf9 generated hAR extracts in the presence or absence of different concentrations of test agent and a fixed concentration of ^3H-dihydrotestosterone (^3H-DHT) as tracer. This binding assay method is a modification of a protocol previously described (Liao S., et. al. J. Steroid Biochem. 20:11-17 1984). Briefly, progressively decreasing concentrations of compounds are incubated in the presence of hAR extract (Chang et al. P.N.A.S. Vol. 89, pp. […], 1992), hydroxylapatite, and 1 nM^3 H-DHT for one hour at 4° C. Subsequently, the binding reactions are washed three times to completely remove excess unbound ^3H-DHT. hAR bound ^3H-DHT levels are determined in the presence of compounds (=i.e competitive binding) and compared to levels bound when no competitor is present (=i.e. maximum binding). Compound binding affinity to the hAR is expressed as the concentration of compound at which one half of the maximum binding is inhibited.

[2] = molecular target: T2, androgen receptor (Homo sapiens, UniProt P10275, Q868H); assay: AR antagonist cell assay (MDA-MB453-MMTV luciferase reporter, 100 pM DHT); type: cell-based
T2 construct: a human breast tumor cell line expressing androgen receptor; endogenous in cells; host or cells: MDA-MB453-MMTV clone 54-19 (MDA-MB-453 stably transfected with the MMTV-luciferase reporter only)
T2 sequence (P10275 1-920 Q868H): T1 sequence (P10275 1-920) with Q868H
Procedure: The compounds ability to antagonize the effects of androgen on the androgen receptor were determined in a whole cell assay as described immediately below.
Experimental Procedure for AR Antagonist Cell Assay
This cell line is a stable transfected cell line with MDA-MB453 cell background (a human breast tumor cell line expressing androgen receptor). A MMTV minimal promoter containing ARE was first cloned in front of a firefly luciferase reporter gene. Then the cascade was cloned into transfection vector pUV120puro. […] Puromycin resistant stable cell line was selected.
Cell Culture Media and Reagents:
Plating medium: DMEM (phenol red free), 10% charcoal treated HyClone serum, 1% L-glutamine
Assay medium: DMEM (phenol red free), 1% charcoal treated HyClone serum, 1% L-glutamine, and 1% penicillin/streptomycin
• 1. Cells are maintained in culture medium, splitting cells when they reach 80-90% confluence • 2. To test compounds, 10,000 cells/well are plated to opaque 96 cell culture plate in 100 uvwell plating medium, culture for overnight at 37° C. in cell culture incubator • 3. […] Add 10 ul/well freshly prepared DHT (final concentration at 100 pM) to each well, incubate at 37° C. for 17 hr (overnight) • 5.
The results are reported as the mean of multiple tests as described below (the numbers of tests are indicated in the footnote). N.D. denotes that the compound was not tested.

[3] = test system: Male C3H/HeN mice; assay: Modified telogen conversion assay; type: in vivo; settings: 3% w/v in propylene glycol (30%)/ethanol (70%), topical, twice daily for 4 weeks
Text: The telogen conversion assay measures the potential of a compound to convert mice in the resting stage of the hair growth cycle (“telogen”) to the active stage of the hair growth cycle (“anagen”). This assay takes advantage of the fact that the fur (i.e. hair) of 7 week old C3H/HeN mice is in the telogen phase. This phase continues until about 75 days of age. In this assay, selected areas of the mice are shaved, contacted with a test agent, or a control, and the difference in the rate of hair growth is measured (i.e. induction of the anagen phase). The first sign of anagen is the darkening of skin color as melanocytes in the follicles start to synthesize melanin, in preparation for the production of pigmented hairs. This model has a number of advantages. This includes the ready availability of female CH3HeN mice, the ability to screen large numbers of compounds quickly, and the ease of housing and handling such animals.
It has been discovered that male C3H/HeN mice may be used in the telogen conversion assay, when evaluating anti-androgen test compounds. Thus, the model relates to a modification of the existing telogen conversion assay. […]
The treatment area was observed and graded every other day for signs of hair growth. The hair growth response was quantified by recording, for each animal, the day on which signs of hair growth first appeared over the treated area. […]

[4] = after 7 years of treatment; cited from earlier work
[5] = baculovirus/Sf9 generated hAR extract, 1 nM 3H-DHT, one hour at 4° C., mean of repeated tests, read-out: AR Binding IC50
[6] = MDA-MB453-MMTV clone 54-19, 100 pM DHT, 17 hr, mean of multiple tests, read-out: AR Cell IC50

For “2-Chloro-6-(methyl-propyl-amino)-4-trifluoromethyl-nicotinonitrile [Example 12]”, the IC50 [1, 5] was 88 nM and the IC50 [2, 6] was 587 nM.

For `C[C@H](c1ccccc1)N(C)c1cc(C(F)(F)F)c(C#N)cn1` (hydrate or solvate) [Example 1, (R)-(+)-6-[Methyl-(1-Phenyl-ethyl)-amino]-4-trifluoromethyl-nicotinonitrile], the melting point was 47.2 to 47.7 °C.

For `C[C@H](c1ccccc1)N(C)c1cc(C(F)(F)F)c(C#N)cn1` [Example 1, (R)-(+)-6-[Methyl-(1-Phenyl-ethyl)-amino]-4-trifluoromethyl-nicotinonitrile], the “hair growth (induction of anagen)” value [3] was “produced substantial hair growth”, the IC50 [1] was 20 nM and the IC50 [2] was 45 nM.

For `CC(c1ccccc1)N(C)c1cc(C(F)(F)F)c(C#N)cn1` (centres unmarked) [Example 2, 6-[Methyl-(1-Phenyl-ethyl)-amino]-4-trifluoromethyl-nicotinonitrile], the IC50 [1] was 123 nM and the IC50 [2] was 229 nM.

Compound `CCCN(CCC)c1cc(C(F)(F)F)c(C#N)cn1` [Example 3, 6-Dipropylamino-4-trifluoromethyl-nicotinonitrile] has an IC50 [1] of 22 nM and an IC50 [2, 6] greater than 1000 nM.

`CCC(C)N(C)c1cc(C(F)(F)F)c(C#N)cn1` (centres unmarked) [Example 4, 6-(sec-Butyl-methyl-amino)-4-trifluoromethyl-nicotinonitrile] gave an IC50 [1] of 10 nM and an IC50 [2, 6] greater than 1000 nM.

`CCCCN(CCO)c1cc(C(F)(F)F)c(C#N)cn1` [Example 5, 6-[Butyl-(2-hydroxy-ethyl)-amino]-4-trifluoromethyl-nicotinonitrile] gave an IC50 [1, 5] of 548 nM.

In the case of `CN(Cc1ccccc1)c1cc(C(F)(F)F)c(C#N)cn1` [Example 7, 6-(Benzyl-methyl-amino)-4-trifluoromethyl-nicotinonitrile], the IC50 [1, 5] is reported as 538 nM.

Compound `CCCN(c1cc(C(F)(F)F)c(C#N)cn1)C1CCCCC1` [Example 8, 6-(Cyclohexyl-propyl-amino)-4-trifluoromethyl-nicotinonitrile] has an IC50 [1, 5] of 425 nM.

In the case of `CCC(C)N(C)c1cc(C(F)(F)F)c(C#N)c(Cl)n1` (centres unmarked) [Example 10], the IC50 [1] is reported as 0.5 nM and the IC50 [2, 6] is reported as greater than 1000 nM.

`CCCN(CCC)c1cc(C(F)(F)F)c(C#N)c(Cl)n1` [Example 11, 6-Dipropylamino-2-chloro-4-rtifluoromethyl-nicotinonitrile] gave an IC50 [1] of 8.2 nM and an IC50 [2, 6] greater than 1000 nM.

For `NCCCC(O)(P(=O)(O)O)P(=O)(O)O` [alendronate], the “increase in spinal BMD” value [4] is given as no more than 11%.
